Test results reported in paper PMC7797697 (Theranostics, 2021).
Values joined by “and” are separate entries in the source; they are usually repeats but may differ in a detail not shown here. Equal values may be shown once.

Key:
MDA-MB-231 cells [1] = assay: High-content epigenetic inhibitor screen, quantification of living cells; assay type: cell-based, human; details: 3 μM, 72 h
Description: (§1) HeLa, MCF-7 and MDA-MB-231 cell lines were purchased from the American Type Culture Collection. MCF-10A, T-47D, PANC-1, A549, HCT-15, Caco-2, SMMC-7721, SH-SY5Y, HUVEC and PC-3 cell lines were obtained from the Chinese Academy of Medical Sciences. MEF was isolated from pregnant mice at 14‒16 days of pregnancy. Primary breast cancer cells were isolated from breast cancer patients. All media including Dulbecco Modified Eagle Medium (DMEM), RPMI 1640 Medium and DMEM/Nutrient Mixture F-12 were supplemented with 10% fetal bovine serum (FBS), 100 units/mL penicillin, and […] streptomycin (Gibco, Waltham, MA, USA). Cells were cultured in a humidified incubator equilibrated with 5% CO2 at 37 °C. Cells were treated for 24-72 h in adherent conditions with compounds from an epigenetic small molecule inhibitor library (L1200, Topscience, Shanghai, China).
(§2) Statistical analyses of all data were performed using GraphPad Prism (version 8.0, Graph Pad Software Inc., San Diego, CA, USA). All the data were analyzed by Student's t-test or one-way ANOVA. The Z-Score was chosen to evaluate the results and experimental deviation. Quantitative data are presented as the mean ± SD. The asterisk (*) denotes statistically significant difference (P < 0.05). IC50 was calculated using a four-parameter fit with variable slope in GraphPad Prism.
To identify potential anti-tumor inhibitors, we screened an epigenetic small molecule inhibitor library for anti-tumor activity in breast cancer cells. […] The selection strategy mainly comprised three stages, in which different concentrations (high to low) of inhibitors screened with a high-content analysis instrument were identified using cancer cell lines in a 96-well plate format (Figure 1A). For the first step, we treated cells with a high concentration of compounds to exclude compounds ineffective in killing cancer cells. MDA-MB-231 cells, a human breast cancer cell line, were treated with 167 epigenetic compounds (30 μM each) for 48 h, and then analyzed by high-content analysis, where changes in cell morphology relative to the control (dimethyl sulfoxide, DMSO) would indicate modulation of cancer cells by compound treatment. […] At the second step, we treated the cells with the 60 compounds at a median concentration (3 μM) for 72 h to screen for inhibitors that can kill cancer cells with high efficiency.

[2] = tested on: Primary breast tumor cells; assay: CCK8 assay IC50; assay type: cell-based, human; details: breast cancer, 72 h
Description: as §1
(§3) Cell viability was then detected using a CCK8 assay (MedChemExpress, USA) according to the manufacturer's instructions.
as §2, with “The asterisk (*) denotes statistically significant difference (P < 0.05).” left out

HUVEC = assay: CCK8 assay IC50; assay type: cell-based, human; details: normal cells, 72 h
Method: as §3, §2

MDA-MB-231 = assay: CCK8 assay IC50; assay type: cell-based, human; details: MDA-MB-231, breast cancer, 72 h, CCK8
Method: as §3, §2

MEF = assay: CCK8 assay IC50; assay type: cell-based, mouse; details: normal cells, 72 h
Description: as §1, §3
as §2, with “The asterisk (*) denotes statistically significant difference (P < 0.05).” left out

MDA-MB-231 cells [3] = assay: Intracellular calcium measurement (Fluo-4-AM); assay type: cell-based, human; details: thrombin stimulation, different concentrations of the pan-HDAC inhibitors
Method: After treatment, the cells were digested and seeded in 96-well black plates (Corning Costar, Cambridge, MA, USA) and cultured for 20 h. For measurement of [Ca^2+]i, the cells were labeled with Fluo-4-AM in serum-free medium for half an hour at room temperature. After washing with Dulbecco's Phosphate Buffered Saline (D-PBS), cells were overlaid in Hank's balanced salt solution (5.4 mM KCl, 1 mM MgCl2, 20 mM hydroxyethyl piperazineethanesulfonic acid (HEPES), 120 mM NaCl, 10 mM glucose, 0.2 mM Ethylenebis(oxyethylenenitrilo)tetraacetic acid (EGTA)). Continuous fluorescence intensity was detected after thrombin was added as a calcium agonist by an automated sampler. Response over baseline was assessed as a relative measure of [Ca^2+]i.
As previously stated, studies have shown that the Ca^2+ signals can modulate cancer progression by regulating migration, proliferation, cell stress, and apoptosis.

MCF-7 = assay: CCK8 assay IC50; assay type: cell-based; details: MCF-7, breast cancer, 72 h, CCK8
Method: as §3, §2

PC-3 = assay: CCK8 assay IC50; assay type: cell-based; details: PC-3, prostatic cancer, 72 h
Method: as §3, §2

HeLa = assay: CCK8 assay IC50; assay type: cell-based; details: cervical cancer, 72 h
Method: as §3, §2

HCT-15 = assay: CCK8 assay IC50; assay type: cell-based; details: HCT-15, colon cancer, 72 h
Method: as §3, §2

Caco-2 = assay: CCK8 assay IC50; assay type: cell-based; details: Caco-2, colon cancer, 72 h
Method: as §3, §2

A549 = assay: CCK8 assay IC50; assay type: cell-based; details: A549, lung cancer, 72 h
Method: as §3, §2

SH-SY5Y = assay: CCK8 assay IC50; assay type: cell-based; details: neuroblastoma, 72 h
Method: as §3, §2

T-47D = assay: CCK8 assay IC50; assay type: cell-based; details: breast cancer, 72 h
Method: as §3, §2

SMMC-7721 = assay: CCK8 assay IC50; assay type: cell-based; details: SMMC-7721, liver cancer, 72 h
Method: as §3, §2

PANC-1 = assay: CCK8 assay IC50; assay type: cell-based; details: PANC-1, pancreatic cancer, 72 h
Method: as §3, §2

`CC(/C=C/C(=O)NO)=C\[C@@H](C)C(=O)c1ccc(N(C)C)cc1` [TSA, trichostatin A] was tested, and the “effect on cell survival” value (MDA-MB-231 cells [1]) was “discernible effects on cell survival”, the IC50 [2] was 2320 nM and the IC50 (HUVEC) was < 1000 nM and 830 nM. For the same compound, the IC50 (MDA-MB-231) was 1000 nM, the IC50 (MEF) was < 1000 nM and 891 nM and the “frequency and amplitude of [Ca^2+]i oscillations” value (“frequency and amplitude” below) (MDA-MB-231 cells [3]) was “did not alter the frequency and amplitude”. The IC50 (MCF-7) was 922 nM, the IC50 (PC-3) was 1310 nM and the IC50 (HeLa) was 572 nM. For the same compound, the IC50 (HCT-15) was 2300 nM, the IC50 (Caco-2) was 3000 nM and the IC50 (A549) was 1310 nM. For the same compound, the IC50 (SH-SY5Y) was 720 nM, the IC50 (T-47D) was 905 nM and the IC50 (SMMC-7721) was 3270 nM. For the same compound, the IC50 (PANC-1) was 1430 nM.
In the case of `O=C(/C=C/c1cccc(S(=O)(=O)Nc2ccccc2)c1)NO` [belinostat], the “effect on cell survival” value (MDA-MB-231 cells [1]) is reported as “discernible effects on cell survival”.
In the case of `CCCCc1nc2cc(/C=C/C(=O)NO)ccc2n1CCN(CC)CC` [pracinostat], the “effect on cell survival” value (MDA-MB-231 cells [1]) is reported as “discernible effects on cell survival”.
`O=C(CCCCCCC(=O)Nc1ccccc1)NO` [vorinostat] was tested, and the “effect on cell survival” value (MDA-MB-231 cells [1]) was “discernible effects on cell survival” and the “frequency and amplitude” value (MDA-MB-231 cells [3]) was “did not alter the frequency and amplitude”.
For `C#Cc1cccc(Nc2ncnc3cc(OC)c(OCCCCCCC(=O)NO)cc23)c1` [CUDC-101], the “effect on cell survival” value (MDA-MB-231 cells [1]) was “discernible effects on cell survival”.
`Cc1cc(Nc2nc(N[C@@H](C)c3ccc(F)cc3)c(C#N)cc2F)[nH]n1` [AZ960] was tested, and the “effect on cell survival” value (MDA-MB-231 cells [1]) was “discernible effects on cell survival”.
With `Cc1[nH]c2ccccc2c1CCNCc1ccc(/C=C/C(=O)NO)cc1` [panobinostat] the “frequency and amplitude” value (MDA-MB-231 cells [3]) was “did not alter the frequency and amplitude”.
